# According to the C3SDB collision cross section collection:
# Where “and” joins values, the source holds several entries; their conditions need not be identical. Equal entries are not always repeated. Structures can show the parent of a compound that is named as a salt.
# Assays:
# [1] = instrument: TW, calibrated with polyalanine and drug standards
# [2] = instrument: DT, single field, calibrated with ESI Low Concentration Tuning Mix (Agilent)
Compound,collision cross section (N2) ([2]; [M+H]+),collision cross section (N2) ([2]; [M+Na]+),collision cross section (N2) ([2]; [M-H]-),other results
COc1ccc2[nH]cc(CCNC(C)=O)c2c1 [MELATONIN],153.2 Å²,–,–,collision cross section (N2) ([1]; [M+H]+): 152 Å²; collision cross section (N2) ([2]; [M+K]+): 158.3 Å²
O=c1nc[nH]c2nc[nH]c12 [HYPOXANTHINE],127.2 Å²,134.4 Å²,116.9 Å²,collision cross section (N2) ([1]; [M+H]+): 123.1 Å²; collision cross section (N2) ([2]; [M+Na-2H]-): 134.4 Å²
Cn1c(=O)c2[nH]cnc2n(C)c1=O [THEOPHYLLINE],–,–,132 Å²,collision cross section (N2) ([1]; [M+H]+): 133.5 Å²
N[C@@H](CSSC[C@H](N)C(=O)O)C(=O)O [CYSTINE],149.4 Å²,151.2 Å²,143 Å²,collision cross section (N2) ([1]; [M+H]+): 148.1 Å²; collision cross section (N2) ([2]; [M+Na-2H]-): 147.3 Å²
C[C@]12CCC(=O)C=C1CC[C@@H]1[C@@H]2C(=O)C[C@@]2(C)[C@H]1CC[C@]2(O)C(=O)CO [CORTISONE],188.3 Å²,213.2 Å²,191.4 Å²,collision cross section (N2) ([1]; [M+H]+): 184.4 Å²
CC(=O)OCC[N+](C)(C)C [ACETYLCHOLINE],–,–,–,collision cross section (N2) ([1]; [M]+): 130.1 Å²; collision cross section (N2) ([2]; [M+]+): 129.5 Å²
O=Cc1ccc(O)cc1 [4-HYDROXYBENZALDEHYDE],–,–,118.2 Å²,–
O=C(O)[C@@H](O)[C@H](O)[C@H](O)[C@@H](O)C(=O)O [GALACTARATE],–,146.9 Å²,132.6 Å²,collision cross section (N2) ([2]; [M+Na-2H]-): 137.2 Å²
N[C@@H](Cc1cc(I)c(Oc2ccc(O)c(I)c2)c(I)c1)C(=O)O [LIOTHYRONINE],209.1 Å²,194.3 Å²,–,collision cross section (N2) ([1]; [M+H]+): 205.3 Å²
CCCCCC/C=C\CCCCCCCC(=O)O [PALMITOLEATE],–,–,167.3 Å²,–
NCCc1cnc[nH]1 [HISTAMINE],120.4 Å²,–,–,–
OC[C@@H](O)[C@H](O)[C@H](O)[C@@H](O)CO [GALACTITOL],–,142.2 Å²,130.5 Å²,–
Nc1nc(=O)c2nc(CNc3ccc(C(=O)N[C@@H](CCC(=O)O)C(=O)O)cc3)cnc2[nH]1 [FOLATE],196.2 Å²,205.7 Å²,192 Å²,collision cross section (N2) ([2]; [M+Na-2H]-): 201.3 Å²
O=C/C=C/c1ccccc1 [TRANS-CINNAMALDEHYDE],121.5 Å²,–,–,–
O=C([O-])c1cccnc1 [NICOTINATE],–,–,121 Å²,–
O=C(O)CC(C(=O)O)C(O)C(=O)O (stereo not given) [ISOCITRATE],–,142.7 Å²,127 Å²,collision cross section (N2) ([2]; [M+Na-2H]-): 136.4 Å²
NC(CCSSCCC(N)C(=O)O)C(=O)O (stereo not given) [HOMOCYSTINE],158 Å²,158.8 Å²,151.6 Å²,collision cross section (N2) ([2]; [M+Na-2H]-): 154.2 Å²
CC(=O)N[C@@H](CC(C)C)C(=O)O [N-ACETYLLEUCINE],–,149.9 Å²,140.5 Å²,–
"OCC(O)c1ccc(O)c(O)c1 (stereo not given) [3,4-DIHYDROXYPHENYLGLYCOL]",–,–,–,collision cross section (N2) ([2]; [M-H2O-H]-): 127.5 Å²
C[C@H](O)[C@H](O)C1=Nc2c([nH]c(N)nc2=O)NC1 [DIHYDROBIOPTERIN],–,–,–,collision cross section (N2) ([2]; [M+H]+*): 153.9 Å²; collision cross section (N2) ([2]; [M+Na]+*): 157.2 Å²
NCCCNCCCCNCCCN [SPERMINE],148.6 Å²,151.5 Å²,–,–
"N[C@@H](Cc1cc(I)c(O)c(I)c1)C(=O)O [3,5-DIIODO-L-TYROSINE]",171.1 Å²,165.2 Å²,159.3 Å²,–
N[C@@H](Cc1ccc(O)c([N+](=O)[O-])c1)C(=O)O [3-NITRO-L-TYROSINE],158.2 Å²,154.5 Å²,148.9 Å²,collision cross section (N2) ([2]; [M+Na-2H]-): 147.7 Å²
CNCCc1c[nH]c2ccccc12 [N-METHYLTRYPTAMINE],142.5 Å²,–,–,–
CC(C)C[C@H](N)C(=O)O [LEUCINE],134.8 Å²,–,130.6 Å²,–
COC1=C(OC)C(=O)C(C/C=C(\C)CC/C=C(\C)CC/C=C(\C)CC/C=C(\C)CC/C=C(\C)CC/C=C(\C)CC/C=C(\C)CC/C=C(\C)CC/C=C(\C)CCC=C(C)C)=C(C)C1=O [COENZYME Q10],–,306.6 Å²,–,–

# More lines, main results first:
collision cross section (N2) ([2]; [M+H]+),collision cross section (N2) ([2]; [M+Na]+),collision cross section (N2) ([2]; [M-H]-),Compound,other results
149.7 Å²,159.9 Å²,–,O=C(O)CCCC[C@@H]1SC[C@@H]2NC(=O)N[C@@H]21 [BIOTIN],collision cross section (N2) ([1]; [M+H]+): 148 Å²; collision cross section (N2) ([2]; [M+K]+): 160.1 Å²; collision cross section (N2) ([2]; [M+Na-2H]-): 152.9 Å²
180.4 Å²,177.3 Å²,178.1 Å²,OC[C@H]1O[C@H](OC[C@H]2OC(O)[C@H](O)[C@@H](O)[C@@H]2O)[C@H](O)[C@@H](O)[C@H]1O (stereo not given in full) [MELIBIOSE],collision cross section (N2) ([1]; [M+Na]+): 174.8 Å²; collision cross section (N2) ([2]; [M+K]+): 180 Å²
–,144.7 Å²,–,O=C1O[C@H](CO)[C@@H](O)[C@H](O)[C@H]1O [GLUCONOLACTONE],collision cross section (N2) ([1]; [M+H]+): 127.6 Å²; collision cross section (N2) ([2]; [M+H2O-H]-): 132.6 Å²; collision cross section (N2) ([2]; [M+H20-H]-): 132.5 Å²
155.6 Å² and 161.4 Å²,165.5 Å²,157.6 Å²,Nc1ncnc2c1ncn2[C@@H]1O[C@H](CO)[C@@H](O)[C@H]1O [ADENOSINE],collision cross section (N2) ([1]; [M+H]+): 156.9 Å²
152.3 Å² and 158.1 Å²,161.6 Å²,155.3 Å²,Nc1ncnc2c1ncn2[C@H]1C[C@H](O)[C@@H](CO)O1 [DEOXYADENOSINE],collision cross section (N2) ([1]; [M+H]+): 154.6 Å²
188.4 Å²,192.4 Å²,181.2 Å²,Nc1ccn([C@@H]2O[C@H](COP(=O)(O)OP(=O)(O)OP(=O)(O)O)[C@@H](O)[C@H]2O)c(=O)n1 [CYTIDINE TRIPHOSPHATE],collision cross section (N2) ([2]; [M+Na-2H]-): 185 Å²
140.4 Å²,147.7 Å²,134.3 Å²,O=C(O)c1cc(=O)c2cccc(O)c2[nH]1 [XANTHURENATE],–
–,–,206.2 Å²,CC(=O)[C@H]1CC[C@H]2[C@@H]3CC=C4C[C@@H](OS(=O)(=O)O)CC[C@]4(C)[C@H]3CC[C@]12C [PREGNENOLONE SULFATE],–
192 Å²,188.4 Å²,182.4 Å²,Nc1nc(=O)c2ncn([C@@H]3O[C@H](COP(=O)(O)OP(=O)(O)O)[C@@H](O)[C@H]3O)c2[nH]1 [GUANOSINE DIPHOSPHATE],collision cross section (N2) ([2]; [M+Na-2H]-): 186.4 Å²
–,132.9 Å²,128.7 Å²,C[C@@](O)(CCO)CC(=O)[O-] [MEVALONATE],–
196.8 Å²,203.6 Å²,200.7 Å²,C[C@H](CCC(=O)NCC(=O)O)[C@H]1CC[C@H]2[C@@H]3[C@H](O)C[C@@H]4C[C@H](O)CC[C@]4(C)[C@H]3CC[C@]12C [GLYCOCHENODEOXYCHOLATE],–
166.8 Å² and 167 Å²,167.9 Å² and 168 Å²,164.4 Å² and 164.5 Å²,Nc1ccn([C@@H]2O[C@H](COP(=O)(O)O)[C@@H](O)[C@H]2O)c(=O)n1 [CYTIDINE MONOPHOSPHATE],collision cross section (N2) ([2]; [M+Na-2H]-): 163.2 Å² and 163.4 Å²
–,138.7 Å²,–,C[C@@H]1OC(O)[C@@H](O)[C@H](O)[C@@H]1O (stereo not given in full) [FUCOSE],–
138.1 Å²,141.3 Å²,–,N[C@@H]1C(O)O[C@H](CO)[C@@H](O)[C@@H]1O (stereo partly drawn) [D-MANNOSAMINE],–
132.2 Å²,–,129.5 Å²,CN[C@@H](CCC(=O)O)C(=O)O [N-METHYLGLUTAMATE],collision cross section (N2) ([2]; [M+Na-2H]-): 137.2 Å²
–,138 Å² and 138.4 Å²,–,C=C(OP(=O)(O)O)C(=O)O [PHOSPHOENOLPYRUVATE],–
–,135.7 Å²,130.8 Å²,CC(=O)NCCCC(=O)O [4-ACETAMIDOBUTANOATE],–
187 Å²,193.1 Å²,183.7 Å²,Nc1ncnc2c1ncn2[C@@H]1O[C@H](COP(=O)(O)OP(=O)(O)O)[C@@H](O)[C@H]1O [ADENOSINE 5'-DIPHOSPHATE],collision cross section (N2) ([2]; [M+Na-2H]-): 187.7 Å²
131.1 Å²,–,123.8 Å²,N[C@@H](CCC(=O)O)C(=O)O [GLUTAMATE],collision cross section (N2) ([2]; [M+K]+): 149.8 Å²; collision cross section (N2) ([2]; [M+Na-2H]-): 131.8 Å²
–,–,115.9 Å²,O=C(O)CC(O)C(=O)O (stereo not given) [MALATE],–
–,134.5 Å²,–,O=C(O)CP(=O)(O)O [PHOSPHONOACETATE],–
